Source: US20110071158A1, “NEW COMPOUNDS” (BOEHRINGER INGELHEIM INTERNATIONAL GMBH, priority 2009, published 2011)

Molecular target: T1, PTK2 enzyme (Homo sapiens, UniProt Q05397)
T1 construct: purchased Invitrogen PV3832
Assay: PTK2 enzyme test, Assay 1 (DELFIA, poly-Glu-Tyr substrate, antibody PT60)
Assay type: biochemical
Settings: Assay 1 (values without *); 1 h pre-incubation, 2% DMSO
Procedure: This test uses active PTK2 enzyme (Invitrogen Code PV3832) and poly-Glu-Tyr (4:1, Sigma P-0275) as the kinase substrate. The kinase activity is detected through the phosphorylation of the substrate in a DELFIA™ assay. The phosphorylated substrate is detected with the europium-labelled phosphotyrosine antibody PT60 (Perkin Elmer, No.: AD00400).
In order to determine concentration-activity curves with PTK2-inhibitors the compounds are serially diluted in 10% DMSO/H2O and 10 μL of each dilution are placed in each well of a 96-well microtitre plate (clear plate with a U-shaped base, Greiner No. 650101) (the inhibitors are tested in duplicates) and mixed with 10 μL/well of PTK2 kinase (0.01 μg/well). PTK2 kinase has been correspondingly diluted beforehand with kinase dilution buffer (20 mM TRIS/HCl pH 7.5, 0.1 mM EDTA, 0.1 mM EGTA, 0.286 mM sodium orthovanadate, 10% glycerol with the addition of freshly prepared BSA (fraction V, 1 mg/mL) and DTT (1 mM)). The test compound and the PTK2 kinase are pre-incubated for 1 h at RT and shaken at 500 revolutions per min. The reaction is started by the addition of 10 μL/well poly (Glu,Tyr) substrate (25 μg/well poly (Glu, Tyr), 0.05 μg/well biotinylated poly (Glu,Tyr) dissolved in 250 mM TRIS/HCl pH 7.5, 9 mM DTT)—the final concentration of DMSO is 2%. Then 20 μL of ATP Mix (30 mM TRIS/HCl pH 7.5, 0.02% Brij, 0.2 mM sodium orthovanadate, 10 mM magnesium acetate, 0.1 mM EGTA, 1× phosphatase inhibitor cocktail 1 (Sigma, No.: P2850), 50 μM ATP (Sigma, No.: A3377; 15 mM stock solution)) are added. After 1 h of kinase reaction (the plates are shaken at 500 rpm), the reaction is stopped by the addition of 12 μL/well 100 mM EDTA, pH 8.0 and shaken for a further 5 min at RT (500 rpm). 55 μL of the reaction mixture are transferred into a streptavidin plate (Strepta Well High Bind (transparent, 96-well) made by Roche, No.: 11989685001) and incubated for 1 h at RT (shaking at 500 rpm). Then the microtitre plate is washed three times with 200 μL/well D-PBS (Invitrogen, No. 14190). 100 μL of a solution containing DELFIA Eu-N1 Anti-Phosphotyrosine PT60 antibody (Perkin Elmer, No.: AD0040, diluted 1:2000 in DELFIA test buffer (Perkin Elmer, No.: 1244-111)) is then added and the mixture is incubated for 1 h at RT (shaking at 500 rpm). Then the plate is washed three times with 200 μL/well DELFIA washing buffer (Perkin Elmer, No.: 1244-114), 200 μL/well strengthening solution (Perkin Elmer, No.: 1244-105) are added and the mixture is incubated for 10 min at RT (shaking at 300 rpm).
The time-delayed europium fluorescence is then measured in a microtitre plate reader (VICTOR^3, Perkin Elmer). […] Wells that contain test buffer instead of enzyme are used as a control of the background kinase activity.
The IC50 values are determined from analyses of the concentration activity by iterative calculation with the aid of a sigmoid curve analysis algorithm (FIFTY, based on Graph PAD Prism Version 3.03) with a variable Hill coefficient.

T1 sequence (Q05397 whole entry): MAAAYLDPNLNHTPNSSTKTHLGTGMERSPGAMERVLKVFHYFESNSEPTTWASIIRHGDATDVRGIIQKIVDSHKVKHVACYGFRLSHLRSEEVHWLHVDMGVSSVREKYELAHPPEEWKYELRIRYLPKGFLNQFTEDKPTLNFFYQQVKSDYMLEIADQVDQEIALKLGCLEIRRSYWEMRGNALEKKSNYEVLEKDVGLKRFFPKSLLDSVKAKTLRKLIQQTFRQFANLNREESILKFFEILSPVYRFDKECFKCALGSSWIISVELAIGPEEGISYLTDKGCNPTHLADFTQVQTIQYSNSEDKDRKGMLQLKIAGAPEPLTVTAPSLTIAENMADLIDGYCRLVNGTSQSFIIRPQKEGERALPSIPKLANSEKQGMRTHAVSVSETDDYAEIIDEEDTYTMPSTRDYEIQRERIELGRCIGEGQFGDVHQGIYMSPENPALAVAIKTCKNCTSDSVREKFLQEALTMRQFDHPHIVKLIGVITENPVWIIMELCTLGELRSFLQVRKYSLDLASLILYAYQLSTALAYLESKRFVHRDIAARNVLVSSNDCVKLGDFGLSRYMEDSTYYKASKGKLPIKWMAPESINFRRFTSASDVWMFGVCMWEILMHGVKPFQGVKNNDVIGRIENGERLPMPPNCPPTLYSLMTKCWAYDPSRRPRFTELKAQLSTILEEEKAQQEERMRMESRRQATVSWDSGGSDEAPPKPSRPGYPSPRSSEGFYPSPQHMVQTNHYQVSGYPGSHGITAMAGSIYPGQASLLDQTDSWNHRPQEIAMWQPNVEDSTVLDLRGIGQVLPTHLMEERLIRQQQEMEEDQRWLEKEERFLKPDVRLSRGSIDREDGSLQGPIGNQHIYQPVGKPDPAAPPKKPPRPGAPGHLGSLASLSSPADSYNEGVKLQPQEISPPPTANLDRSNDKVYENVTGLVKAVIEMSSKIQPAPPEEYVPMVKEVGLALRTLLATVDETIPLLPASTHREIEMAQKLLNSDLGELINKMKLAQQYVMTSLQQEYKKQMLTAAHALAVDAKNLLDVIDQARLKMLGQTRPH

Structure (SMILES) | IC50
CCN1CCC(NC(=O)c2ccc(Nc3ncc(Br)c(N[C@@H]4CCCC[C@H]4NC(C)=O)n3)c(OC)c2)CC1 [Example I-51] | 1 nM
COCCNC(=O)c1ccc(Nc2ncc(Br)c(N[C@@H]3CCCC[C@H]3NC(C)=O)n2)c(OC)c1 [Example I-52] | 2 nM
COc1ccccc1Nc1ncc(Br)c(N[C@@H]2CCCC[C@H]2NC(C)=O)n1 [Example I-53] | 8 nM
COc1ccc(Nc2ncc(Br)c(N[C@@H]3CCCC[C@H]3NC(C)=O)n2)c(OC)c1 [Example I-54] | 4 nM
COc1cc(C(=O)NC2CCN(C3CC3)CC2)ccc1Nc1ncc(Br)c(N[C@@H]2CCCC[C@H]2NC(C)=O)n1 [Example I-55] | 2 nM
CNC(=O)c1ccc(Nc2ncc(Cl)c(N[C@@H]3CCCC[C@H]3NC(C)=O)n2)c(OC)c1 [Example I-56] | 3 nM
COc1cc(C(=O)N(C)C)ccc1Nc1ncc(Cl)c(N[C@@H]2CCCC[C@H]2NC(C)=O)n1 [Example I-57] | 26 nM
CCNC(=O)c1ccc(Nc2ncc(Cl)c(N[C@@H]3CCCC[C@H]3NC(C)=O)n2)c(OC)c1 [Example I-58] | 3 nM
COc1cc(C(=O)NCCN(C)C)ccc1Nc1ncc(Cl)c(N[C@@H]2CCCC[C@H]2NC(C)=O)n1 [Example I-59] | 1 nM
COc1cc(C(=O)NC2CCOCC2)ccc1Nc1ncc(Cl)c(N[C@@H]2CCCC[C@H]2NC(C)=O)n1 [Example I-60] | 3 nM
CCN1CCC(NC(=O)c2ccc(Nc3ncc(Cl)c(N[C@@H]4CCCC[C@H]4NC(C)=O)n3)c(OC)c2)CC1 [Example I-61] | 1 nM
COc1cc(C(=O)NC2CCCN(C)C2)ccc1Nc1ncc(Cl)c(N[C@@H]2CCCC[C@H]2NC(C)=O)n1 (stereo partly drawn) [Example I-62] | 1 nM
COc1cc(C(=O)NC2CCN(C3CC3)CC2)ccc1Nc1ncc(Cl)c(N[C@@H]2CCCC[C@H]2NC(C)=O)n1 [Example I-63] | 3 nM
COc1cc(C(=O)NC2CCN(C)CC2)ccc1Nc1ncc(Cl)c(N[C@@H]2CCCC[C@H]2NC(C)=O)n1 [Example I-64] | 1 nM
COCCNC(=O)c1ccc(Nc2ncc(Cl)c(N[C@@H]3CCCC[C@H]3NC(C)=O)n2)c(OC)c1 [Example I-65] | 3 nM
COc1cc(C(=O)NC2CCN(C)CC2)ccc1Nc1ncc(C(F)(F)F)c(N[C@@H]2CCCC[C@H]2NC(=O)CN2CCN(C)CC2)n1 [Example I-66] | 200 nM
COc1ccc(Nc2ncc(Cl)c(N[C@@H]3CCCC[C@H]3NC(C)=O)n2)c(OC)c1 [Example I-67] | 10 nM
COc1cc(C(=O)NC2CCN(C)CC2)ccc1Nc1ncc(C(F)(F)F)c(N[C@@H]2CCCC[C@H]2NC(=O)CN2CCOCC2)n1 [Example I-68] | 200 nM
COc1ccc(Nc2ncc(C(F)(F)F)c(N[C@@H]3CCCC[C@H]3NC(=O)CC(C)C)n2)c(OC)c1 [Example I-70] | 440 nM
CCN1CCC(NC(=O)c2ccc(Nc3ncc(C(F)(F)F)c(N[C@@H]4CCCC[C@H]4N(C)C(C)=O)n3)c(OC)c2)CC1 [Example I-71] | 10 nM
COc1cc(C(=O)N(C)C)ccc1Nc1ncc(C(F)(F)F)c(N[C@@H]2CCCC[C@H]2N(C)C(C)=O)n1 [Example I-72] | 31 nM
COc1cc(C(=O)NCCN(C)C)ccc1Nc1ncc(C(F)(F)F)c(N[C@@H]2CCCC[C@H]2N(C)C(C)=O)n1 [Example I-73] | 0.95 nM
COc1cc(C(=O)NC2CCCN(C)C2)ccc1Nc1ncc(C(F)(F)F)c(N[C@@H]2CCCC[C@H]2N(C)C(C)=O)n1 (stereo partly drawn) [Example I-74] | 1 nM
CNCc1ccc(Nc2ncc(C(F)(F)F)c(N[C@@H]3CCCC[C@H]3NC(=O)C3CCC3)n2)c(OC)c1 [Example I-75] | 3 nM
CNCc1ccc(Nc2ncc(C(F)(F)F)c(N[C@@H]3CCCC[C@H]3NC(C)=O)n2)c(OC)c1 [Example I-76] | 1 nM
CCC(=O)N[C@@H]1CCCC[C@H]1Nc1nc(Nc2ccc(CNC)cc2OC)ncc1C(F)(F)F [Example I-77] | 2 nM

Structure (SMILES) | IC50
CNCc1ccc(Nc2ncc(C(F)(F)F)c(N[C@@H]3CCCC[C@H]3NC(=O)COC)n2)c(OC)c1 [Example I-78] | 4 nM
CNCc1ccc(Nc2ncc(C(F)(F)F)c(N[C@@H]3CCCC[C@H]3NC(=O)C(C)C)n2)c(OC)c1 [Example I-79] | 3 nM
COc1cc(C(=O)NC2CCN(C)CC2)ccc1Nc1ncc(C(F)(F)F)c(N[C@@H]2CCCC[C@H]2N(C)C(=O)C(C)C)n1 [Example I-80] | 9 nM
CCC(=O)N(C)[C@@H]1CCCC[C@H]1Nc1nc(Nc2ccc(C(=O)NC3CCN(C)CC3)cc2OC)ncc1C(F)(F)F [Example I-81] | 3 nM
COc1cc(C(=O)NC2CCN(C)CC2)ccc1Nc1ncc(C(F)(F)F)c(N[C@@H]2CCCC[C@H]2N(C)C(C)=O)n1 [Example I-82] | 0.98 nM
COc1cc(C(=O)NC2CCN(C)CC2)ccc1Nc1ncc(C(F)(F)F)c(N[C@@H]2CCCC[C@H]2N(C)C(=O)C2CC2)n1 [Example I-83] | 4 nM
COc1cc(C(=O)NC2CCN(C)CC2)ccc1Nc1ncc(C(F)(F)F)c(N[C@@H]2CCCC[C@H]2N(C)C(=O)C2CCC2)n1 [Example I-84] | 37 nM
CNC(=O)c1cc(OC)c(Nc2ncc(C(F)(F)F)c(N[C@@H]3CCCC[C@H]3NC(C)=O)n2)cc1F [Example I-85] | 2 nM
COc1cc(C(=O)NC2CCOCC2)c(F)cc1Nc1ncc(C(F)(F)F)c(N[C@@H]2CCCC[C@H]2NC(C)=O)n1 [Example I-86] | 7 nM
CCN1CCC(NC(=O)c2cc(OC)c(Nc3ncc(C(F)(F)F)c(N[C@@H]4CCCC[C@H]4NC(C)=O)n3)cc2F)CC1 [Example I-87] | 2 nM
COc1cc(C(=O)NC2CCCN(C)C2)c(F)cc1Nc1ncc(C(F)(F)F)c(N[C@@H]2CCCC[C@H]2NC(C)=O)n1 (stereo partly drawn) [Example I-88] | 2 nM
COc1cc(C(=O)O)ccc1Nc1ncc(C(F)(F)F)c(N[C@@H]2CCCC[C@H]2NC(C)=O)n1 [Example I-89] | 9 nM
COC(=O)N(C)[C@@H]1CCCC[C@H]1Nc1nc(Nc2ccc(C(=O)NC3CCN(C)CC3)cc2OC)ncc1C(F)(F)F [Example I-95] | 7 nM
COc1cc(C(=O)NC2CCN(C)CC2)ccc1Nc1ncc(C(F)(F)F)c(N[C@@H]2CCCC[C@H]2N2CCCC2=O)n1 [Example I-97] | 2 nM
CCN(C(C)=O)[C@@H]1CCCC[C@H]1Nc1nc(Nc2ccc(C(=O)NC3CCN(C)CC3)cc2OC)ncc1C(F)(F)F [Example I-99] | 3 nM
COc1cc(N2CCN(C)CC2)ccc1Nc1ncc(C(F)(F)F)c(N[C@@H]2CCCC[C@H]2N(C)C(C)=O)n1 [Example I-101] | 2 nM
COc1cc(C(=O)NC2CCN(C)CC2)ccc1Nc1ncc(C(F)(F)F)c(N[C@@H]2CCCC[C@H]2N(CC2CC2)C(C)=O)n1 [Example I-103] | 7 nM
COc1cc(C(=O)NC2CCN(C)CC2)ccc1Nc1ncc(C(F)(F)F)c(N[C@@H]2CCC[C@@H]2NC(C)=O)n1 [Example I-105] | 38 nM
COc1cc(C(=O)N[C@H]2CCCN(C)C2)ccc1Nc1ncc(C(F)(F)F)c(N[C@@H]2CCCC[C@H]2N(C)C(C)=O)n1 [Example I-107] | 1 nM
COc1cc(C(=O)NC2CCC(N(C)C)CC2)ccc1Nc1ncc(C(F)(F)F)c(N[C@@H]2CCCC[C@H]2N(C)C(C)=O)n1 (stereo partly drawn) [Example I-108] | 1 nM
COc1cc(C(=O)NC2CCN(C(C)C)CC2)ccc1Nc1ncc(C(F)(F)F)c(N[C@@H]2CCCC[C@H]2N(C)C(C)=O)n1 [Example I-109] | 1 nM
COCCNC(=O)c1ccc(Nc2ncc(C(F)(F)F)c(N[C@@H]3CCCC[C@H]3N(C)C(C)=O)n2)c(OC)c1 [Example I-110] | 2 nM
COc1cc(C(=O)N[C@@H]2CCCN(C)C2)ccc1Nc1ncc(C(F)(F)F)c(N[C@@H]2CCCC[C@H]2N(C)C(C)=O)n1 [Example I-111] | 1 nM
COc1cc(C(=O)NCCCN(C)C)ccc1Nc1ncc(C(F)(F)F)c(N[C@@H]2CCCC[C@H]2N(C)C(C)=O)n1 [Example I-112] | 1 nM
CON[C@H]1CCCC[C@H]1Nc1nc(Nc2ccc(C(=O)NC3CCN(C)CC3)cc2OC)ncc1C(F)(F)F [Example I-113] | 5 nM
